Several values for one entry are separate records, joined by “and”; a condition that tells them apart may be missing. Equal values may be shown once.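 Values below derive from 48-hour exposures of cells grown in 96-well plates, with endpoints linearly interpolated between the two concentrations bracketing the appropriate inhibition level. GI50 is the concentration that inhibits growth by half. TGI: concentration producing complete growth inhibition.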
How the values were obtained:
Assay in all cases: NCI-60 cell line screen, 48 h
HCC-2998 colon = test system: HCC-2998 colon
HCT-116 colon = test system: HCT-116 colon
LOX IMVI melanoma = test system: LOX IMVI melanoma
NCI-H226 lung = test system: NCI-H226 lung
OVCAR-4 ovarian = test system: OVCAR-4 ovarian
SF-268 CNS = test system: SF-268 CNS
SF-295 CNS = test system: SF-295 CNS
T-47D breast = test system: T-47D breast
UACC-257 melanoma = test system: UACC-257 melanoma
UACC-62 melanoma = test system: UACC-62 melanoma

| Compound | GI50 (HCC-2998 colon) | TGI (HCC-2998 colon) | GI50 (HCT-116 colon) | TGI (HCT-116 colon) | GI50 (LOX IMVI melanoma) | TGI (LOX IMVI melanoma) | GI50 (NCI-H226 lung) | TGI (NCI-H226 lung) | GI50 (OVCAR-4 ovarian) | TGI (OVCAR-4 ovarian) | GI50 (SF-268 CNS) | TGI (SF-268 CNS) | GI50 (SF-295 CNS) | TGI (SF-295 CNS) | GI50 (T-47D breast) | TGI (T-47D breast) | GI50 (UACC-257 melanoma) | TGI (UACC-257 melanoma) | GI50 (UACC-62 melanoma) | TGI (UACC-62 melanoma) |
| --- | --- | --- | --- | --- | --- | --- | --- | --- | --- | --- | --- | --- | --- | --- | --- | --- | --- | --- | --- | --- |
| COc1cc(-c2nc(NC(C)=O)sc2-c2ccnc(NCCNS(=O)(=O)c3ccccc3)n2)ccc1Cl | 20.9 µM | > 100 µM | 3.17 µM | 35.7 µM | 4.41 µM | > 100 µM | 6.45 µM | > 100 µM | 3.58 µM | > 100 µM | 4.25 µM | > 100 µM | 2.74 µM | 13.4 µM | 2.69 µM | > 100 µM | 5.37 µM | > 100 µM | 2.61 µM | > 100 µM |
| O=C(c1ccc(OCCN2CCCCC2)cc1)c1c(-c2ccc(O)cc2)sc2cc(O)ccc12 | 6.37 µM and 19.1 µM | 19.2 µM and 36.8 µM | 3.68 µM and 8.5 µM | 14 µM and 42.7 µM | 1.76 µM and 4.06 µM | 3.45 µM and 15.1 µM | 15 µM and 17 µM | 29.6 µM and 34.6 µM | 7.8 µM and 12.1 µM | 20.5 µM and 36.8 µM | 6.67 µM and 12.8 µM | 20.1 µM and 35.5 µM | 2.99 µM and 7.88 µM | 11 µM and 28.5 µM | 2.77 µM and 5.89 µM | 20 µM and > 50.2 µM | 2.82 µM and 3.52 µM | 10.8 µM and 10.5 µM | 12 µM and 13.7 µM | 25.8 µM and 27.2 µM |
| COc1c2ccoc2cc2oc(=O)ccc12 |  | > 100 µM |  | > 100 µM |  | > 100 µM |  | > 100 µM |  | > 100 µM |  | > 100 µM |  | > 100 µM |  | > 100 µM |  | > 100 µM |  | > 100 µM |
| CCc1c2c(nc3cc4c(c(N)c13)OCO4)-c1cc3c(c(=O)n1C2)COC(=O)[C@]3(O)CC | 0.0317 µM and 0.0431 µM | 6.38 µM and 0.676 µM | 0.174 µM | 24.6 µM | < 0.001 µM | 0.134 µM and 0.19 µM | < 0.001 µM | 0.202 µM | 0.13 µM and 0.35 µM | > 100 µM |  | 15.2 µM | < 0.001 µM |  | < 0.001 µM |  | 0.199 µM and 0.0583 µM | 2.58 µM and 2.47 µM | < 0.001 µM | 0.405 µM and 0.236 µM |
| CCCCCCCCCCCCNC(=O)[C@H]1CSC(c2cc3ccccc3s2)N1 (some centres undefined) | 4.88 µM | 9.72 µM | 1.06 µM | 3.42 µM | 0.534 µM | 1.05 µM | 3 µM | 7.88 µM | 0.849 µM | 1.97 µM |  |  | 3.52 µM | 8.33 µM | 5.5 µM | 12.3 µM | 4.12 µM | 8.6 µM | 1.15 µM | 4.28 µM |
| NC(=O)C1c2ccccc2C=Cc2ccccc21 | > 100 µM | > 100 µM | > 100 µM | > 100 µM | > 100 µM | > 100 µM | > 100 µM | > 100 µM | > 100 µM | > 100 µM | > 100 µM | > 100 µM | > 100 µM | > 100 µM | > 100 µM | > 100 µM | > 100 µM | > 100 µM | > 100 µM | > 100 µM |
| NC(=O)/C(=C\c1ccncc1)c1cccc2ccccc12 |  |  |  | > 100 µM |  | > 100 µM |  | 95.2 µM |  | > 100 µM |  | > 100 µM |  | > 100 µM |  | > 100 µM |  | 8.49 µM |  | > 100 µM |
| O=C(CSc1nc2ccccc2nc1-c1ccccc1)Nc1ccc(Cl)cc1 | 46.4 µM | > 100 µM | 5.24 µM | 24 µM | 38.3 µM | > 100 µM | 16.7 µM | 51.1 µM | 13.6 µM | > 100 µM | 15.5 µM | 51.3 µM | 17.5 µM | 85.1 µM | 13 µM | > 100 µM | > 100 µM | > 100 µM | 20.7 µM | > 100 µM |
| COc1cc2c(c(OC)c1O)-c1ccc(OC)c(=O)cc1[C@@H](NC(=O)C(F)(F)F)CC2 |  | 14.1 µM |  | > 40.8 µM |  | > 100 µM |  |  |  | > 100 µM |  | > 100 µM |  | > 100 µM |  | > 100 µM |  | > 100 µM |  | > 100 µM |
| COc1ccc(CCN2CCCN3C2=Nc2ccccc2S3(=O)=O)cc1 | 1.45 µM | > 100 µM | 0.444 µM | 16.4 µM | 0.669 µM | > 100 µM | 8.25 µM | > 100 µM | 0.912 µM | > 100 µM | 2.06 µM | > 100 µM | 0.389 µM | > 100 µM | 0.56 µM | > 100 µM |  |  | 0.744 µM | > 100 µM |
| N=C(N)/N=C(\N)c1c(-c2cc(O)ccc2O)nc2sccn12 |  |  | 17.3 µM | 35.9 µM | 22.8 µM | 44.5 µM | > 100 µM | > 100 µM | 33.9 µM | > 100 µM | > 100 µM | > 100 µM | > 100 µM | > 100 µM | 20.7 µM | 45.1 µM | 25.1 µM | 62.7 µM | 44.6 µM | > 100 µM |
| CC(/C=C/C(=O)c1sc(-n2nc(-c3ccccc3)cc2-c2ccccc2)nc1C)=C\c1ccccc1 |  | > 100 µM |  | > 100 µM |  | > 100 µM | > 100 µM | > 100 µM | > 100 µM | > 100 µM |  | > 100 µM | > 100 µM | > 100 µM |  |  |  | > 100 µM |  | > 100 µM |
| COC(=O)NC1(NC(=O)OC)NC(=O)c2cc(OC)c(OC)cc2N1 |  |  |  | > 100 µM |  | > 100 µM |  |  |  |  |  | > 100 µM |  | > 100 µM |  | > 100 µM |  | > 100 µM |  | > 100 µM |
| NCCCCCCCCn1c2c(c3ccccc3c1=O)C(=O)c1ccccc1-2 | 1.89 µM | 3.75 µM |  |  | 3.64 µM | > 100 µM | 14 µM | 34.8 µM | 4.34 µM | 27.4 µM | 6.44 µM | > 100 µM | 2.57 µM | 7.18 µM | 4.97 µM | 36.6 µM | 4.97 µM | 20.6 µM | 3.76 µM | 14.1 µM |
| O=Nc1ccc(O)c2ccccc12 | 3.31 µM | 11.3 µM | 1.17 µM | 2.46 µM | 0.668 µM | 2.28 µM | 2.02 µM | 4.3 µM | 1.17 µM | 2.44 µM | 2.29 µM | 5.87 µM | 2.04 µM | 4.55 µM |  |  | 1.63 µM | 3.23 µM | 1.69 µM | 3.37 µM |

Source: PubChem BioAssay (NCI)
